Tested on: HCV 1b-Con-1 replicon
Assay: HCV 1b-Con-1 replicon assay (luciferase reporter gene, HuH-7 cells)
Format: cell-based, Hepatitis C virus (HCV) genotype 1b-Con1
Settings: Hepatitis C virus, Huh-7, luciferase reporter gene activity in the replicon, in the presence of 5% FBS

SMILES	EC50 [nM]
CCN(CC)[C@@H](C(=O)N1CCC[C@H]1C(=O)Nc1ccc(CN(Cc2ccc(NC(=O)[C@@H]3CCCN3C(=O)[C@@H](c3ccccc3)N(CC)CC)cc2)c2ccccc2)cc1)c1ccccc1 [Example 21, (R,2S,2′S)-N,N′-(4,4′-(phenylazanediyl)bis(methylene)bis(4,1-phenylene))bis(1-((R)-2-(diethylamino)-2-phenylacetyl)pyrrolidine-2-carboxamide)]	< 1
COC(=O)N[C@H](C(=O)N1CCC[C@H]1C(=O)Nc1ccc(CN(Cc2ccc(NC(=O)[C@@H]3CCCN3C(=O)[C@@H](NC(=O)OC)C(C)C)cc2)C(C)C)cc1)C(C)C [Example 24, dimethyl ([(1-methylethyl)imino]bis{methanediylbenzene-4,1-diylcarbamoyl(2S)pyrrolidine-2,1-diyl[(2S)-3-methyl-1-oxobutane-1,2-diyl]})biscarbamate]	1 to 10
COC(=O)N[C@H](C(=O)N1CCC[C@H]1C(=O)Nc1ccc(CN(Cc2ccc(NC(=O)[C@@H]3CCCN3C(=O)[C@@H](NC(=O)OC)[C@@H](C)O)cc2)c2ccccc2)cc1)[C@@H](C)O [Example 25, dimethyl[(phenylimino)bis{methanediylbenzene-4,1-diylcarbamoyl(2S)pyrrolidine-2,1-diyl[(2S,3R)-3-hydroxy-1-oxobutane-1,2-diyl]}]biscarbamate]	1 to 10
COC(=O)N[C@@H](CO)C(=O)N1CCC[C@H]1C(=O)Nc1ccc(CN(Cc2ccc(NC(=O)[C@@H]3CCCN3C(=O)[C@H](CO)NC(=O)OC)cc2)c2ccccc2)cc1 [Example 26, dimethyl[(phenylimino)bis{methanediylbenzene-4,1-diylcarbamoyl(2S)pyrrolidine-2,1-diyl[(2S)-3-hydroxy-1-oxopropane-1,2-diyl]}]biscarbamate]	10 to 100
COC(=O)N[C@H](C(=O)N1CCC[C@H]1C(=O)Nc1ccc(CN(Cc2ccc(NC(=O)[C@@H]3CCCN3C(=O)[C@@H](NC(=O)OC)C(C)C)cc2)C2CCCC2)cc1)C(C)C [Example 27, dimethyl[(cyclopentylimino)bis{methanediylbenzene-4,1-diylcarbamoyl(2S)pyrrolidine-2,1-diyl[(2S)-3-methyl-1-oxobutane-1,2-diyl]}]biscarbamate]	10 to 100
COC(=O)N[C@H](C(=O)N1CCC[C@H]1C(=O)Nc1ccc(CN(Cc2ccc(NC(=O)[C@@H]3CCCN3C(=O)[C@@H](NC(=O)OC)C(C)(C)O)cc2)c2ccccc2)cc1)C(C)(C)O [Example 28, dimethyl [(phenylimino)bis{methanediylbenzene-4,1-diylcarbamoyl(2S)pyrrolidine-2,1-diyl[(2S)-3-hydroxy-3-methyl-1-oxobutane-1,2-diyl]}]biscarbamate]	< 1
COC(=O)N[C@H](C(=O)N1CCC[C@H]1C(=O)Nc1ccc(CN(Cc2ccc(NC(=O)[C@@H]3CCCN3C(=O)[C@@H](NC(=O)OC)C(C)(C)C)cc2)C2CCCC2)cc1)C(C)(C)C [Example 29, dimethyl[(cyclopentylimino)bis{methanediylbenzene-4,1-diylcarbamoyl(2S)pyrrolidine-2,1-diyl[(2S)-3,3-dimethyl-1-oxobutane-1,2-diyl]}]biscarbamate]	100 to 250
COC(=O)N[C@H](C(=O)N1CCC[C@H]1C(=O)Nc1ccc(CN(Cc2ccc(NC(=O)[C@@H]3CCCN3C(=O)[C@@H](NC(=O)OC)C(C)(C)C)cc2)C(C)C)cc1)C(C)(C)C [Example 30, dimethyl ([(1-methylethyl)imino]bis{methanediylbenzene-4,1-diylcarbamoyl(2S)pyrrolidine-2,1-diyl[(2S)-3,3-dimethyl-1-oxobutane-1,2-diyl]})biscarbamate]	100 to 250
CC(C)(C)[C@@H](C(=O)N1CCC[C@H]1C(=O)Nc1ccc(CN(Cc2ccc(NC(=O)[C@@H]3CCCN3C(=O)[C@@H](N3CCNC3=O)C(C)(C)C)cc2)c2ccccc2)cc1)N1CCNC1=O [Example 31, (2S,2′S)-N,N′-[(phenylimino)bis(methanediylbenzene-4,1-diyl)]bis{1-[(2S)-3,3-dimethyl-2-(2-oxoimidazolidin-1-yl)butanoyl]pyrrolidine-2-carboxamide}]	< 1
COCCN(Cc1ccc(NC(=O)[C@@H]2CCCN2C(=O)[C@@H](NC(=O)OC)C(C)(C)C)cc1)Cc1ccc(NC(=O)[C@@H]2CCCN2C(=O)[C@@H](NC(=O)OC)C(C)(C)C)cc1 [Example 32, dimethyl ([(2-methoxyethyl)imino]bis{methanediylbenzene-4,1-diylcarbamoyl(2S)pyrrolidine-2,1-diyl[(2S)-3,3-dimethyl-1-oxobutane-1,2-diyl]})biscarbamate]	100 to 250
COC(=O)N[C@H](C(=O)N1CCC[C@H]1C(=O)Nc1ccc(CN(Cc2ccc(NC(=O)[C@@H]3CCCN3C(=O)[C@@H](NC(=O)OC)C(C)(C)C)cc2)c2ccon2)cc1)C(C)(C)C [Example 33, dimethyl[(isoxazol-3-ylimino)bis{methanediylbenzene-4,1-diylcarbamoyl(2S)pyrrolidine-2,1-diyl[(2S)-3,3-dimethyl-1-oxobutane-1,2-diyl]}]biscarbamate]	1 to 10
COC(=O)N[C@H](C(=O)N1CCC[C@H]1c1nc2ccc(CN(Cc3ccc4nc([C@@H]5CCCN5C(=O)[C@@H](NC(=O)OC)C(C)(C)O)[nH]c4c3)c3ccccc3)cc2[nH]1)C(C)(C)O [Example 34, methyl [(1S)-2-hydroxy-1-{[(2S)-2-(6-{[({2-[(2S)-1-{(2S)-3-hydroxy-2-[(methoxycarbonyl)amino]-3-methylbutanoyl}pyrrolidin-2-yl]-1H-benzimidazol-6-yl}methyl)(phenyl)amino]methyl}-1H-benzimidazol-2-yl)pyrrolidin-1-yl]carbonyl}-2-methylpropyl]carbamate]	< 1
COC(=O)N[C@H](C(=O)N1CCC[C@H]1c1nc2ccc(CN(Cc3ccc4nc([C@@H]5CCCN5C(=O)[C@@H](NC(=O)OC)[C@@H](C)O)[nH]c4c3)c3ccccc3)cc2[nH]1)[C@@H](C)O [Example 35, methyl [(1S,2R)-2-hydroxy-1-{[(2S)-2-(6-{[({2-[(2S)-1-{(2S,3R)-3-hydroxy-2-[(methoxycarbonyl)amino]butanoyl}pyrrolidin-2-yl]-1H-benzimidazol-6-yl}methyl)(phenyl)amino]methyl}-1H-benzimidazol-2-yl)pyrrolidin-1-yl]carbonyl}propyl]carbamate]	< 1
CC(C)[C@@H](C(=O)N1CCC[C@H]1C(=O)Nc1ccc(CN(Cc2ccc(NC(=O)[C@@H]3CCCN3C(=O)[C@H](C(C)C)N3CCCNC3=O)cc2)c2ccccc2)cc1)N1CCCNC1=O [Example 36, (2S,2′S)-N,N′-[(phenylimino)bis(methanediylbenzene-4,1-diyl)]bis {1-[(2S)-3-methyl-2-(2-oxotetrahydropyrimidin-1(2H)-yl)butanoyl]pyrrolidine-2-carboxamide}]	1 to 10
C=CC[C@H](NC(=O)OC)C(=O)N1CCC[C@H]1C(=O)Nc1ccc(CN(Cc2ccc(NC(=O)[C@@H]3CCCN3C(=O)[C@H](CC=C)NC(=O)OC)cc2)c2ccccc2)cc1 [Example 37, dimethyl [(phenylimino)bis{methanediylbenzene-4,1-diylcarbamoyl(2S)pyrrolidine-2,1-diyl[(4S)-5-oxopent-1-ene-5,4-diyl]}]biscarbamate]	1 to 10
CC[C@H](NC(=O)OC)C(=O)N1CCC[C@H]1C(=O)Nc1ccc(CN(Cc2ccc(NC(=O)[C@@H]3CCCN3C(=O)[C@H](CC)NC(=O)OC)cc2)c2ccccc2)cc1 [Example 38, dimethyl [(phenylimino)bis{methanediylbenzene-4,1-diylcarbamoyl(2S)pyrrolidine-2,1-diyl[(2S)-1-oxobutane-1,2-diyl]}]biscarbamate]	1 to 10
COC(=O)N[C@H](C(=O)N1CCC[C@H]1C(=O)Nc1ccc(CN(Cc2ccc(NC(=O)[C@@H]3CCCN3C(=O)[C@@H](NC(=O)OC)[C@H]3CCOC3)cc2)c2ccccc2)cc1)[C@H]1CCOC1 [Example 39, dimethyl {(phenylimino)bis[methanediylbenzene-4,1-diylcarbamoyl(2S)pyrrolidine-2,1-diyl{(1S)-2-oxo-1-[(3R)-tetrahydrofuran-3-yl]ethane-2,1-diyl}]}biscarbamate]	< 1
COCC(=O)N[C@H](C(=O)N1CCC[C@H]1C(=O)Nc1ccc(CN(Cc2ccc(NC(=O)[C@@H]3CCCN3C(=O)[C@@H](NC(=O)COC)C(C)(C)C)cc2)c2ccccc2)cc1)C(C)(C)C [Example 40, (2S,2′S)-N,N′-[(phenylimino)bis(methanediylbenzene-4,1-diyl)]bis(1-{(2S)-2-[(methoxyacetyl)amino]-3,3-dimethylbutanoyl}pyrrolidine-2-carboxamide)]	10 to 100
CC[C@H](C)[C@H](NC(=O)OC(C)(C)C)C(=O)N1CCC[C@H]1C(=O)Nc1ccc(CN(Cc2ccc(NC(=O)[C@@H]3CCCN3C(=O)[C@@H](NC(=O)OC(C)(C)C)[C@@H](C)CC)cc2)c2ccccc2)cc1 [Example 41, di-tert-butyl[(phenylimino)bis{methanediylbenzene-4,1-diylcarbamoyl(2S)pyrrolidine-2,1-diyl[(2S,3S)-3-methyl-1-oxopentane-1,2-diyl]}]biscarbamate]	10 to 100
CC(C)[C@@H](C(=O)N1CCC[C@H]1C(=O)Nc1ccc(CN(Cc2ccc(NC(=O)[C@@H]3CCCN3C(=O)[C@H](C(C)C)N3CCCC3=O)cc2)c2ccccc2)cc1)N1CCCC1=O [Example 42, (2S,2′S)-N,N′-[(phenylimino)bis(methanediylbenzene-4,1-diyl)]bis {1-[(2S)-3-methyl-2-(2-oxopyrrolidin-1-yl)butanoyl]pyrrolidine-2-carboxamide}]	< 1
CC(=O)N[C@@H](C(=O)N1CCC[C@H]1C(=O)Nc1ccc(CN(Cc2ccc(NC(=O)[C@@H]3CCCN3C(=O)[C@H](NC(C)=O)c3ccccc3)cc2)c2ccccc2)cc1)c1ccccc1 [Example 43, (2S,2′S)-N,N′-[(phenylimino)bis(methanediylbenzene-4,1-diyl)]bis{1-[(2R)-2-(acetylamino)-2-phenylacetyl]pyrrolidine-2-carboxamide}]	< 1

Reference: patent US9278922B2 (ABBVIE INC., priority 2009, dated 2016)
